Experimental data published in ChEMBL document CHEMBL4602617, “Discovery and optimization of heteroaryl piperazines as potent and selective PI3Kδ inhibitors” (Bioorg Med Chem Lett, 2020).

What was measured:
[1] = biological target: Mitogen-activated protein kinase 13 (Homo sapiens, UniProt O15264); experiment: Inhibition of recombinant full length human His-tagged p38delta expressed in baculovirus expression system using serine/threonine-3 peptide as substrate incubated for 60 mins in presence of ATP by Z'-LYTE assay
[2] = biological target: Non-receptor tyrosine-protein kinase TYK2 (Homo sapiens, UniProt P29597); experiment: Inhibition of recombinant human GST-tagged TYK2 catalytic domain (833 to 1187 residues) expressed in baculovirus expression system using tyrosine-3 peptide as substrate incubated for 60 mins in presence of ATP by Z'-LYTE assay
[3] = biological target: RAC-alpha serine/threonine-protein kinase (Homo sapiens, UniProt P31749); experiment: Inhibition of recombinant full length human His-tagged AKT1 expressed in baculovirus expression system using serine/threonine-06 peptide as substrate incubated for 60 mins in presence of ATP by Z'-LYTE assay
[4] = biological target: Adenosine receptor A2a (Homo sapiens) (UniProt P29274); experiment: Displacement of [3H]CGS-21680 from full-length recombinant human A2A receptor expressed in HEK293 cells at 10 uM measured after 90 mins by scintillation counting method relative to control; assay type: cell-based
[5] = biological target: Prostaglandin E2 receptor EP3 subtype (Homo sapiens) (UniProt P43115); experiment: Inhibition of human prostanoid EP3 receptor at 10 uM relative to control
[6] = biological target: Epidermal growth factor receptor (Homo sapiens, UniProt P00533, L858R/T790M); experiment: Inhibition of human recombinant GST-tagged EGFR L858R/T790M mutant expressed in baculovirus expression system using tyrosine 4 peptide as substrate after 60 mins in presence of ATP FRET based Z'-LYTE assay
[7] = biological target: SRSF protein kinase 2 (Homo sapiens, UniProt P78362); experiment: Inhibition of recombinant full length human GST-tagged SRPK2 expressed in baculovirus expression system using serine/threonine-07 peptide as substrate incubated for 60 mins in presence of ATP by Z'-LYTE assay
[8] = biological target: Calcium/calmodulin-dependent protein kinase type 1D (Homo sapiens, UniProt Q8IU85); experiment: Inhibition of recombinant full length human His-tagged CAMK1delta expressed in baculovirus expression system using serine/threonine-25 peptide as substrate incubated for 60 mins in presence of ATP by Z'-LYTE assay
[9] = biological target: Nuclear receptor subfamily 1 group I member 2 (Homo sapiens, UniProt O75469); experiment: Inhibition of PXR (unknown origin)
[10] = biological target: Phosphodiesterase 3 (Homo sapiens) (UniProt Q14432+Q13370); experiment: Inhibition of human platelet PDE3 at 10 uM using cAMP as substrate after 20 mins in presence of [3H]cAMP by radiometric scintillation assay relative to control
[11] = biological target: Mitogen-activated protein kinase 14 (Homo sapiens, UniProt Q16539); experiment: Inhibition of recombinant full length human p38alpha expressed in Escherichia coli at 10 uM using MBP as substrate after 30 mins by radiometric scintillation analysis relative to control
[12] = Clearance in human liver microsomes; assay type: ADME, Microsome; conditions: read-out: CLH
[13] = biological target: Histamine H1 receptor (Homo sapiens) (UniProt P35367); experiment: Displacement of [3H]pyrilamine from full length human recombinant histamine H1 receptor expressed in CHO-K1 cells at 10 uM measured after 180 mins by radiometric scintillation analysis relative to control; assay type: cell-based
[14] = biological target: Dual specificity mitogen-activated protein kinase kinase 6 (Homo sapiens, UniProt P52564); experiment: Inhibition of recombinant full length human His-tagged MAP2K6 expressed in baculovirus expression system using serine/threonine-3 peptide as substrate incubated for 60 mins in presence of ATP by Z'-LYTE assay
[15] = biological target: Serine/threonine-protein kinase Chk2 (Homo sapiens, UniProt O96017); experiment: Inhibition of recombinant human full-length His-tagged CHEK2 expressed in baculovirus expression system using FRET-labeled Ser/Thr 07 peptide as substrate measured after 1 hr in presence of ATP by Z'-lyte assay
[16] = biological target: CDK7/Cyclin H/MNAT1 (Homo sapiens, UniProt P50613); experiment: Inhibition of recombinant full length human His-tagged CDK7/CyclinH/MAT1 expressed in baculovirus expression system using CDK7/9tide peptide as substrate incubated for 60 mins in presence of ATP by Adapta assay
[17] = Distribution coefficient, logD of compound by HPLC analysis; assay type: physicochemical; conditions: octanol/water
[18] = biological target: Megakaryocyte-associated tyrosine-protein kinase (Homo sapiens, UniProt P42679); experiment: Inhibition of recombinant full length human His-tagged MATK expressed in Escherichia coli using tyr-01 peptide as substrate incubated for 60 mins in presence of ATP by Z'-LYTE assay
[19] = biological target: Muscarinic acetylcholine receptor M3 (Homo sapiens) (UniProt P20309); experiment: Displacement of [3H]N-Methylscopolamine from full length human recombinant Muscarinic M3 receptor expressed in CHOK1 cells at 10 uM measured after 120 mins by radiometric scintillation analysis relative to control; assay type: cell-based; conditions: CHO-K1
[20] = biological target: Peroxisome proliferator-activated receptor alpha (Homo sapiens) (UniProt Q07869); experiment: Inhibition of human PPARalpha expressed in Escherichia coli at 10 uM relative to control
[21] = biological target: Neuropeptide Y receptor type 2 (Homo sapiens) (UniProt P49146); experiment: Displacement of [[125I]peptide YY from full length human KAN-TS cell membrane derived Y2 neuropeptide receptor at 10 uM measured after 120 mins by radiometric scintillation analysis relative to control
[22] = biological target: Maternal embryonic leucine zipper kinase (Homo sapiens, UniProt Q14680); experiment: Inhibition of recombinant human GST-tagged MELK catalytic domain expressed in baculovirus expression system using serine/threonine-17 peptide as substrate incubated for 60 mins in presence of ATP by Z'-LYTE assay
[23] = biological target: Histamine H4 receptor (Homo sapiens) (UniProt Q9H3N8); experiment: Inhibition of human histamine H4 receptor at 10 uM relative to control
[24] = biological target: Glutamate NMDA receptor (Rattus norvegicus) (UniProt P35439+Q00959+Q00960+Q00961+Q62645+Q8VHN2+Q9R1M7); experiment: Displacement of [3H]Ifenprodil from in glutamate NMDA receptor polyamine binding site in Wistar rat cerebral cortex at 10 uM incubated for 120 mins by radiometric scintillation analysis relative to control
[25] = biological target: CDK2/Cyclin A2 (Homo sapiens, UniProt P24941); experiment: Inhibition of recombinant full length human His-tagged CDK2/Cyclin A expressed in baculovirus expression system using serine/threonine-12 peptide as substrate incubated for 60 mins in presence of ATP by Z'-LYTE assay
[26] = biological target: Cannabinoid receptor 2 (Homo sapiens) (UniProt P34972); experiment: Displacement of [3H]WIN55212-2 from recombinant full length human recombinant CB2 receptor expressed in CHOK1 cells at 10 uM measured after 90 mins by radiometric scintillation analysis relative to control; assay type: cell-based; conditions: CHO-K1
[27] = biological target: Casein kinase I isoform epsilon (Homo sapiens, UniProt P49674); experiment: Inhibition of recombinant human full-length GST-tagged CSNK1E expressed in insect cells using FRET-labeled Ser/Thr 11 peptide as substrate measured after 1 hr in presence of ATP by Z'-lyte assay
Chain of Casein kinase I isoform epsilon (P49674 whole entry, canonical isoform): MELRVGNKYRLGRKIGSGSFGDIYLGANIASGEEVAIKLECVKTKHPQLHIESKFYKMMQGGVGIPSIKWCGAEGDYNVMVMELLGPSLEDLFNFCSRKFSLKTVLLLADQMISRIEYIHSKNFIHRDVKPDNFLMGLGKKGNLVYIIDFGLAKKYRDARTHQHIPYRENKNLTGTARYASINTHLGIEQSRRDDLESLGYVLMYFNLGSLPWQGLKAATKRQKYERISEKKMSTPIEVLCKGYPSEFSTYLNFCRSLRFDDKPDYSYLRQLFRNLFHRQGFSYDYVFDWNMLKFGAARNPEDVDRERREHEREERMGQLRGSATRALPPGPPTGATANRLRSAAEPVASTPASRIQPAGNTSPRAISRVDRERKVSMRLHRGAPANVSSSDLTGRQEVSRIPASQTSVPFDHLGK

Chain of Histamine H1 receptor (Homo sapiens) (P35367 whole entry): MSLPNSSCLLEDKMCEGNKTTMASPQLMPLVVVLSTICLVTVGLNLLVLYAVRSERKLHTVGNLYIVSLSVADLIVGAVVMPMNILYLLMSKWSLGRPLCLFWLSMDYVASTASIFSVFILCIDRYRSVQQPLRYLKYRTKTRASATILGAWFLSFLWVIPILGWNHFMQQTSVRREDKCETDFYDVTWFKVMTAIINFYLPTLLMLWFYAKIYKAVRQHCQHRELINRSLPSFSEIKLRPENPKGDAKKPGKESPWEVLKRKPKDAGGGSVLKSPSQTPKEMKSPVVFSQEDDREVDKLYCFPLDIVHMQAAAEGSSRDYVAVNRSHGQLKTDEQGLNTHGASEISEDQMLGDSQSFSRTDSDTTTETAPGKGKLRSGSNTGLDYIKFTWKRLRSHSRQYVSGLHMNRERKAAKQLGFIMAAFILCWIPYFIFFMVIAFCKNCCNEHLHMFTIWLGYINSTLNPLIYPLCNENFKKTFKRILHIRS
Chain of CDK7/Cyclin H/MNAT1 (P51946 whole entry): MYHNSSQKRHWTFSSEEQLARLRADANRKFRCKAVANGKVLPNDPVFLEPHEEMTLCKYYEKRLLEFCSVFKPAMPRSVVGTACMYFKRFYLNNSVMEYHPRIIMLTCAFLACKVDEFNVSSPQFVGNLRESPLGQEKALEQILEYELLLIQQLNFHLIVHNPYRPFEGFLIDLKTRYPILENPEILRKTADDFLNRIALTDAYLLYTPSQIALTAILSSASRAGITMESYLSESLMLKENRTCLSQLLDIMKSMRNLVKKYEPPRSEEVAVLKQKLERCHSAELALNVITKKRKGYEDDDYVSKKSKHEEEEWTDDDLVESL
Chain of CDK7/Cyclin H/MNAT1 (P50613 whole entry): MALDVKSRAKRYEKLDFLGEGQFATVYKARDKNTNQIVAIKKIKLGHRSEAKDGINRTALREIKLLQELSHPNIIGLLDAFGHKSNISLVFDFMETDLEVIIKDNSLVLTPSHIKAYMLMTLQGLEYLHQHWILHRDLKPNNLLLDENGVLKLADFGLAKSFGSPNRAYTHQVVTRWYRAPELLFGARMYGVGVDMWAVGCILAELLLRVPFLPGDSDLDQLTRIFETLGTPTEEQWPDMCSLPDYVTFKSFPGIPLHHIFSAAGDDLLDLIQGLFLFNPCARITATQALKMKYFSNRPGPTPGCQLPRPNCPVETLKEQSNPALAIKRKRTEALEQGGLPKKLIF
Chain of CDK7/Cyclin H/MNAT1 (P51948 whole entry, further chain): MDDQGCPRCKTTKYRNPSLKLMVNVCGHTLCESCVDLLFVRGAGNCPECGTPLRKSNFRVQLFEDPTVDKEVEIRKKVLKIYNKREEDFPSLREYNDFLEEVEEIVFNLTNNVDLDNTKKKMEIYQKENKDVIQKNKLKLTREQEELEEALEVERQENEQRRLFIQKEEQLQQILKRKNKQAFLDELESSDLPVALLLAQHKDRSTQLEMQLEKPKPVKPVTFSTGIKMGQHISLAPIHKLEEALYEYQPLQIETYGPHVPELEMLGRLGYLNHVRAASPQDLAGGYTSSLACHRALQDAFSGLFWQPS
Chain of Prostaglandin E2 receptor EP3 subtype (Homo sapiens) (P43115 whole entry): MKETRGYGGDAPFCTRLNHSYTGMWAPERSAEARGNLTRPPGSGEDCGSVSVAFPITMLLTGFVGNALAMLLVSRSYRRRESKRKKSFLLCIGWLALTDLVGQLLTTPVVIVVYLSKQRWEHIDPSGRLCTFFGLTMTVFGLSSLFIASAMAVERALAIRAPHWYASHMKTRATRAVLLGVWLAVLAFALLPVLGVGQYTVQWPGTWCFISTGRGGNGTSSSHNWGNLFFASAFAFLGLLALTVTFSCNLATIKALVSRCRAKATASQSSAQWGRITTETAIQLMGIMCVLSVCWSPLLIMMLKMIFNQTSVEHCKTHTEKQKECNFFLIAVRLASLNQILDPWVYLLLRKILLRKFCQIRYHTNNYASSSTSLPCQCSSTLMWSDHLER
Chain of Non-receptor tyrosine-protein kinase TYK2 (P29597 whole entry, the tested form may be a part): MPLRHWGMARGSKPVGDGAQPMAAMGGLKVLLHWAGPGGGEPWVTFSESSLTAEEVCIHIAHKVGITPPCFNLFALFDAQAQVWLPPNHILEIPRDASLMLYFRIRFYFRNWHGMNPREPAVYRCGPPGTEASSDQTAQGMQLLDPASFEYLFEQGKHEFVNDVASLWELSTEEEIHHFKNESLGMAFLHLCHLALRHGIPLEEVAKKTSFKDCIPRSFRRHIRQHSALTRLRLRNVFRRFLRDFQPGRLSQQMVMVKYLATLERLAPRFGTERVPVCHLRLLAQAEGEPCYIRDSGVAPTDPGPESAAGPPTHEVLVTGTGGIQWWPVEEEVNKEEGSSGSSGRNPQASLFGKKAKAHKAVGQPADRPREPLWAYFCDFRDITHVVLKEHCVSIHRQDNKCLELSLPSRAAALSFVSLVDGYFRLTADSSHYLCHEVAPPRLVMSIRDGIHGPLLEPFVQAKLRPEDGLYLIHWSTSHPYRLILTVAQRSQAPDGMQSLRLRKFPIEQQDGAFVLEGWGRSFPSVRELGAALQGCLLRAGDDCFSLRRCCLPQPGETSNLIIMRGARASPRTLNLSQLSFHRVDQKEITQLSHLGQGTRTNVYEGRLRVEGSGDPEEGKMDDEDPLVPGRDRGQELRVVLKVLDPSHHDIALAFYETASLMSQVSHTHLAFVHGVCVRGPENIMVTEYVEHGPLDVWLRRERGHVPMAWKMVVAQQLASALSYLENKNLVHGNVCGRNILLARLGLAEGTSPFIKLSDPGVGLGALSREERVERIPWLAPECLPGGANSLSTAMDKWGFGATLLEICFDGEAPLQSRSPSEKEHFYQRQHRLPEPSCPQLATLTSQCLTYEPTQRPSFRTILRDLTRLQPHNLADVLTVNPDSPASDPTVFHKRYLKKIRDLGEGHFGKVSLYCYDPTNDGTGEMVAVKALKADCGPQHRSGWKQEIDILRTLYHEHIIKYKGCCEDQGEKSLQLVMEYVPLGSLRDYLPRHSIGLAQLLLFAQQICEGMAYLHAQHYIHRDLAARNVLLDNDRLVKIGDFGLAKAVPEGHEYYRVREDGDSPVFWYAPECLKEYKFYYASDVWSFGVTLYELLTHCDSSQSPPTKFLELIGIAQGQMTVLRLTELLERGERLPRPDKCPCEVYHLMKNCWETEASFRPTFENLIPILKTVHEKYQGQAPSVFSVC
Chain of Megakaryocyte-associated tyrosine-protein kinase (P42679 whole entry): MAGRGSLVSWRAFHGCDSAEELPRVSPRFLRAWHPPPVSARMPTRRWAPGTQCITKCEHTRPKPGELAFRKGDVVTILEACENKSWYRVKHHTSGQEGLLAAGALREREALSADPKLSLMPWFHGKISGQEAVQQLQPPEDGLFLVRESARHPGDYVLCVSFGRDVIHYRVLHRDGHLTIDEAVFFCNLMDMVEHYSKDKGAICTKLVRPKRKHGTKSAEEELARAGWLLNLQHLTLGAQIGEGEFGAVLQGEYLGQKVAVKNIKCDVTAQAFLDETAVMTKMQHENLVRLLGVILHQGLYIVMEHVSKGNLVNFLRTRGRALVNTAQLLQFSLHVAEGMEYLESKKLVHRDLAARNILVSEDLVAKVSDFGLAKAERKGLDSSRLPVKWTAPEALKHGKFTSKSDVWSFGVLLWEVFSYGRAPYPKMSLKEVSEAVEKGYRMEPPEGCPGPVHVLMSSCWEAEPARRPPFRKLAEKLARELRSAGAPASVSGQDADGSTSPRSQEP
Chain of Mitogen-activated protein kinase 14 (Q16539 whole entry): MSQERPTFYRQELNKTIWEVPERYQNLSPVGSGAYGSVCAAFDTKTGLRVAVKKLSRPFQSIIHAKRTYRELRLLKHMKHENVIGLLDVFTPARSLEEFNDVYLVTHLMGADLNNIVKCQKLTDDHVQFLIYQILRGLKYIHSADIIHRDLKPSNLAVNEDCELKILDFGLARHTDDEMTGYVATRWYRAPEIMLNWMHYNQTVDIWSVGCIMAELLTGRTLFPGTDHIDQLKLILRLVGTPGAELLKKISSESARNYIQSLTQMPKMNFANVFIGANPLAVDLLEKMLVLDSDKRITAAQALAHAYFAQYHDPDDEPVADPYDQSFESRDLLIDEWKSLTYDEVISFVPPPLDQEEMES
Chain of Dual specificity mitogen-activated protein kinase kinase 6 (P52564 whole entry): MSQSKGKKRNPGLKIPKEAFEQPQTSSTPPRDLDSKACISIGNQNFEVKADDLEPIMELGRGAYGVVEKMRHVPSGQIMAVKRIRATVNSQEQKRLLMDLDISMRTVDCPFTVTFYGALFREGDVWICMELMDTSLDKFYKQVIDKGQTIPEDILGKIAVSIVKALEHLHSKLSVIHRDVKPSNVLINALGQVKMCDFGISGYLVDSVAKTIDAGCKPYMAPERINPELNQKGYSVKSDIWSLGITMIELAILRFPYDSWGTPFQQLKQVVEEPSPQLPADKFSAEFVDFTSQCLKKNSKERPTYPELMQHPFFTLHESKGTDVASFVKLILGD

SMILES: C[C@@H]1C[C@H]1C(=O)N1CCN(c2cnc(C#N)c(-c3cnn(C)c3)n2)C[C@H]1C
- IC50 [1]: > 100 µM
- IC50 [2]: > 100 µM
- IC50 [3]: > 100 µM
- inhibition [4]: 18%
- inhibition [5]: 7%
- IC50 [6]: > 100 µM
- IC50 [7]: > 100 µM
- IC50 [8]: > 100 µM
- EC50 [9]: > 30 µM
- inhibition [10]: 21%
- inhibition [11]: 19%
- CLint scaled [12]: < 16 mL/min/kg
- inhibition [13]: 12%
- IC50 [14]: > 100 µM
- IC50 [15]: > 100 µM
- IC50 [16]: > 100 µM
- logD [17]: 1.6
- IC50 [18]: > 100 µM
- inhibition [19]: 0%
- inhibition [20]: > 50%
- inhibition [21]: -2%
- IC50 [22]: > 100 µM
- inhibition [23]: 1%
- inhibition [24]: 0%
- IC50 [25]: > 100 µM
- inhibition [26]: 2%
- IC50 [27]: > 100 µM
